{"source": "patent US12115250B2", "about": "“Use of nanoparticles for treating respiratory infections associated with cystic fibrosis” (EVOQ NANO, INC., priority 2019, dated 2024)", "key": {"E. coli ATCC #51813": {"tested_on": "E. coli ATCC #51813", "assay": "Antibacterial efficacy test, Relative Light Unit (RLU) counts (ATP)", "format": "cell-based", "experimental": "The NIST nanoparticles are formed by a chemical reduction process that utilizes citrate as reducing and capping agent.\nRelative Light Unit (RLU) counts were recorded at 12 hours and 24 hours post treatment. RLU measurements were carried out using a Hygiena SystemSURE Plus V.2 SN067503 RLU meter with Hygenia AquaSnap TOTAL ATP Water Test Cat #U143 Lot #153019. Culturing media was Hardy Diagnostics Buffered Peptone Water Lot #118272. Samples were prepared with the nanoparticle treatments and then diluted with the media to provide the tested concentrations. The test organism (Microbiologics, E. coli, KwikStik, ATCC #51813, Ref #0791 K, Lot #791-1-6) was incubated in fresh Buffered Peptone Water growth media for 24 hours prior to exposure to the nanoparticle treatments."}, "[1]": {"assay": "Efficacy test comparing Attostat Ag to tobramycin (colony reduction)", "format": "cell-based", "conditions": "4 μg/mL Attostat Ag vs 20 μg/mL tobramycin", "experimental": "Efficacy tests similar to those of Examples 5 and 6 were performed to compare the efficacy of Attostat Ag to tobramycin. […]"}}, "data": [{"smiles": "O=[N+]([O-])[O-].[Ag+]", "note": "[AgNO3 Silver Nitrate, silver nitrate]", "values": [{"measurement": "RLU Counts at 12 Hours Post Exposure", "setting": "E. coli ATCC #51813; 0.25 ppm (mg/L)", "result": 80, "unit": "RLU"}, {"measurement": "RLU Counts at 24 Hours Post Exposure", "setting": "E. coli ATCC #51813; 0.25 ppm (mg/L)", "result": 25, "unit": "RLU"}, {"measurement": "RLU Counts at 12 Hours Post Exposure", "setting": "E. coli ATCC #51813; 0.5 ppm (mg/L)", "result": 75, "unit": "RLU"}, {"measurement": "RLU Counts at 24 Hours Post Exposure", "setting": "E. coli ATCC #51813; 0.5 ppm (mg/L)", "result": 46, "unit": "RLU"}, {"measurement": "RLU Counts at 12 Hours Post Exposure", "setting": "E. coli ATCC #51813; 1.0 ppm (mg/L)", "result": 84, "unit": "RLU"}, {"measurement": "RLU Counts at 24 Hours Post Exposure", "setting": "E. coli ATCC #51813; 1.0 ppm (mg/L)", "result": 30, "unit": "RLU"}]}, {"smiles": "NC[C@H]1O[C@H](O[C@H]2[C@H](O)[C@@H](O[C@H]3O[C@H](CO)[C@@H](O)[C@H](N)[C@H]3O)[C@H](N)C[C@@H]2N)[C@H](N)C[C@@H]1O", "note": "[tobramycin]", "values": [{"measurement": "colony reduction, comparison", "setting": "[1]", "result": "equal colony reduction"}]}]}
